Measured values published in publication PMC7503597 (International Journal of Molecular Sciences, 2020).

Target: T1, D3R-ELucC (Homo sapiens, UniProt P35462)
T1 construct: gene DRD3
Experiment: cell-based
Settings: HEK-293T, read-out: β-Arrestin2 Recruitment / Emax [%]

T1 sequence (P35462 whole entry): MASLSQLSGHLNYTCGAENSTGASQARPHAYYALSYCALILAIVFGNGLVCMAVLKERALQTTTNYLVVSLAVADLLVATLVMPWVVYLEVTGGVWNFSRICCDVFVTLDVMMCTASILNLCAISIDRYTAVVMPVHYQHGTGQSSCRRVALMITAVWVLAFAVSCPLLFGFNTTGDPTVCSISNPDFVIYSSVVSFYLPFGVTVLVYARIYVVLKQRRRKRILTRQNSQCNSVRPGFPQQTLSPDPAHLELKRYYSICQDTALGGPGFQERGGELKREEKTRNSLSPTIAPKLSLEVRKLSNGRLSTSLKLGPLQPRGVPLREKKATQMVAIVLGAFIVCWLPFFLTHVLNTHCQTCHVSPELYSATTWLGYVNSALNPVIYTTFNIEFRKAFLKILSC

Emax: -26 ± 8%
SMILES: CCN1CCC[C@H]1CNC(=O)c1cc(S(N)(=O)=O)ccc1OC [S-(−)-sulpiride]
